From article PMC8670242, “Functional Characterization and Structural Insights Into Stereoselectivity of Pulegone Reductase in Menthol Biosynthesis” (Frontiers in Plant Science, 2021)

Target: T1, ArPR (Agastache rugosa, UniProt A0A977TNC5)
T1 construct: pET28a (BamHI/SacI) His-tag fusion, E. coli BL21(DE3), Ni-NTA and gel filtration
Assay: in vitro reduction, GC
Type: biochemical
Conditions: NADPH

T1 sequence (A0A977TNC5 1-343): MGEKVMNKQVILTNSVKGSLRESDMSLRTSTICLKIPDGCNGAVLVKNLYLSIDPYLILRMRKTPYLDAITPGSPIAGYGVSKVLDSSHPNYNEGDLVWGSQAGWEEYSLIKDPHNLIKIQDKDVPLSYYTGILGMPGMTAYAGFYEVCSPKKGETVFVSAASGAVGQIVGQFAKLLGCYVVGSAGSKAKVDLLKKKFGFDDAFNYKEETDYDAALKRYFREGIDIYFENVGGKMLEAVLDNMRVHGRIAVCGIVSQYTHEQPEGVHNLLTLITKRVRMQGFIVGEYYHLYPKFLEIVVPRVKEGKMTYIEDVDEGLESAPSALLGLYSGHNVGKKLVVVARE

CC(C)=C1CC[C@H](C)CC1=O [(−)-pulegone]
in vitro reduction, GC: showed a higher preference for (−)-pulegone over (+)-pulegone
